# Assay results reported in patent publication US4542141A, “Compound having vasodilating, antiaggregating and hypocholesterolemic activities, process for the preparation thereof and pharmaceutical compositions therefrom” (Edmond Pharma s.r.l., priority 1982, dated 1985).
# Columns and labels:
# [1] = system: platelet aggregation induced by adrenaline; assay: "Ex vivo" platelet antiaggregating action; assay type: in vivo, rabbits; conditions: rabbit PRP, 35 mcg/ml adrenaline
# Description: By this test, the effect of VQG 582, acetylsalicylic acid or sulfinpyrazone pretreatment of rabbits on the platelet aggregation induced on the PRP of these animals by 35 mcg/ml adrenaline, has been valued.
# [2] = Acute toxicity in the mouse (LD50, Probits method); conditions: in vivo
# Method: (§1) The study has been performed using whitish Swiss mice weighing about 20 g and Wistar rats, in the phase of weight increase, weighing about 150 g, of both sexes. The product has been administered to fasted animals (2 hours for mice and 18 hours for rats) by gastric tube (oral route) or intraperitoneal injection. Sulfipyrazone has been used as reference drug.
# (§2) For the statistic calculation of LD50 and of the respective confidence limits for p=0.05, the Probits method was followed (Finney D. J.--Probit analysis-Cambridge Univ. Press, London and New York, 1952), taking into account the death rates in the 8 days following the treatments.
# [3] = Hypocholesterolemic action in rats fed with Nath's diet; assay type: in vivo; conditions: 200 mg/kg per os, 40 days
# Method: 24 Hours after the last administration, the survived animals have been sacrificed and the dosage of total serum cholesterol, serum triglycerides, serum phospholipids and serum free fatty acids has been performed according to the methods described by Abell et al. (J. Biol. Chem., 195, 375, 1952), VAN HANDALL et al. (J. Lab. Clin. Med., 50, 152, 1957), MORRISON (Anal. Biochem., 7, 218, 1964), DOLE AND MEINERTZ (J. Biol. Chem., 235, 2595, 1960).
# The livers were withdrawn and weighed, homogenized and extracted in soxhlet. The extracted lipids, evaporated, have been weighed and expresses as % of fresh organ.
# [4] = Acute toxicity in the rat (LD50, Probits method); conditions: in vivo
# Method: as §1, §2
# [5] = rat, in vivo
# [6] = system: thrombocytopenia induced by Arthus reaction; assay: Inhibition of the thrombocytopenia induced by Arthus reaction in the guinea-pig; assay type: in vivo, guinea pigs; conditions: guinea pig after antigenic reaction, 100 mg/kg os; for % inhibition: thrombocytopenia
# Description: The method described by White and Butler (Thromb. Diath. Haemorr., 34, 533, 1975) has been used.
# [7] = system: cutaneous temperature of the paw; assay: Vasodilating action in the mouse (cutaneous temperature of the paw); assay type: in vivo, Swiss male whitish mice; conditions: for mean variation of the cutaneous temperature in the 3h following the treatment: in °C (unit assumed)
# Method: Swiss male whitish mice weighing about 20 g have been used. The cutaneous temperature of the paw has been measured, in conditioned room by means of a suitable thermometric equipment, (a) for three times, at 30 minutes intervals, before treatment (basal temperature), and (b) every 30 minutes in the three hours following the drugs treatment.
# [8] = Pharmacokinetics in the rat by the oral route; conditions: equimolar doses, compared with VQG 582
# [9] = ip, intraperitoneal route, female
# [10] = ip, intraperitoneal route, male
structure (smiles),measurement,setting,value
"CC(=O)Oc1ccccc1C(=O)O [ASA, acetylsalicylic acid]",inhibition %,[1]; 50 mg/kg os,30%
same,inhibition %,[1]; 75 mg/kg os,70%
same,inhibition %,[1]; 100 mg/kg os,100%
"O=C(OCC1(CC[S+]([O-])c2ccccc2)C(=O)N(c2ccccc2)N(c2ccccc2)C1=O)c1cccnc1 (centres unmarked) [VQG 582, 1,2-diphenyl-4-[2-(phenylsulfinyl)-ethyl]-4-(nicotinoyloxymethyl)-pyrazolidine-3,5-dione]",inhibition %,[1]; 40 mg/kg os,15%
same,inhibition %,[1]; 80 mg/kg os,70%
same,inhibition %,[1]; 120 mg/kg os,85%
same,LD50 at 192 h,[2]; [9],3250 mg/kg
same,LD50 at 192 h,[2]; [10],3130 mg/kg
same,LD50 at 192 h,"[2]; po, female",> 4000 mg/kg
same,LD50 at 192 h,"[2]; po, male",> 4000 mg/kg
same,% dead animals,[3],10%
same,serum cholesterol,[3],294.1 mg/100 ml
same,serum free fatty acids,[3],0.31 mg/100 ml
same,serum phospholipids,[3],157.1 mg/100 ml
same,serum triglycerides,[3],113.8 mg/100 ml
same,liver lipids %,[3]; % of fresh organ,16.0%
same,LD50 at 192 h,[4]; [9],2320 mg/kg
same,LD50 at 192 h,[4]; [10],2690 mg/kg
same,LD50 at 192 h,"[4]; po, female",> 4000 mg/kg
same,LD50 at 192 h,"[4]; po, male",> 4000 mg/kg
same,pharmacological action after oral administration,[5],pharmacological action clearly delayed
same,blood concentrations expressed as sulfinpyrazone,[5]; po,prolongation of the blood concentrations expressed as sulfinpyrazone
same,metabolism,[5]; po,"metabolized via an intermediate step, respectively to nicotinic acid and sulfinpyrazone"
same,presence of unchanged compound in the plasma,[5]; po,found unchanged in the plasma 30 minutes to 1 hour after the treatment
same,N. platelets ± S.E.,[6],218.5 10^3 /mm^3
same,% inhibition,[6],70.2%
same,max. effect time,[7]; 100 mg/kg os,60 min
same,mean variation of the cutaneous temperature in the 3h following the treatment,[7]; 100 mg/kg os,+0.60
O=C(O)c1cccnc1 [nicotinic acid],% dead animals,[3],10%
same,serum cholesterol,[3],324.3 mg/100 ml
same,serum free fatty acids,[3],0.39 mg/100 ml
same,serum phospholipids,[3],161.7 mg/100 ml
same,AUC,[5]; po,AUC superimposable to VQG 582
same,max. effect time,[7]; 50 mg/kg os,30 min
same,mean variation of the cutaneous temperature in the 3h following the treatment,[7]; 50 mg/kg os,+0.75
same,absorption,[8],faster absorption
"O=C1C(CC[S+]([O-])c2ccccc2)C(=O)N(c2ccccc2)N1c1ccccc1 (centres unmarked) [sulfinpyrazone, 1,2-diphenyl-4-[2-(phenylsulfinyl)ethyl]-pyrazoline-3,5-dione]",inhibition %,[1]; 40 mg/kg os,5%
same,inhibition %,[1]; 80 mg/kg os,30%
same,inhibition %,[1]; 120 mg/kg os,70%
same,LD50 at 192 h,[2]; [9],159 mg/kg
same,LD50 at 192 h,[2]; [10],163 mg/kg
same,LD50 at 192 h,"[2]; po, female",335 mg/kg
same,LD50 at 192 h,"[2]; po, male",368 mg/kg
same,LD50 at 192 h,[4]; [9],157 mg/kg
same,LD50 at 192 h,[4]; [10],149 mg/kg
same,LD50 at 192 h,"[4]; po, female",390 mg/kg
same,LD50 at 192 h,"[4]; po, male",348 mg/kg
same,N. platelets ± S.E.,[6],204.3 10^3 /mm^3
same,% inhibition,[6],63.1%
same,mean variation of the cutaneous temperature in the 3h following the treatment,[7]; 100 mg/kg os,+0.05
